For the assay, the target named is Macrophage colony-stimulating factor 1 receptor (Homo sapiens, UniProt P07333). In words: Fluorescence Polarization Competition Immunoassay. The conditions noted are these: pH 7.5; 25 °C. As to the method:
The assay buffer used was 100 mM 4-(2-hydroxyethyl)piperazine 1-ethanesulfonic acid (HEPES), pH 7.5, 1 mM 1,4-dithio-DL-threitol (DTT), 0.01% (v/v) Tween-20. Compounds were diluted in assay buffer containing 4% dimethylsulfoxide (DMSO) just prior to the assay. To each well, 5 μL of compound were added followed by the addition of 3 μL of a mix containing 33 nM c-fms (Johnson & Johnson PRD) and 16.7 mM MgCl2 (Sigma) in assay buffer. The kinase reaction was initiated by adding 2 μL of 5 mM ATP (Sigma) in assay buffer. The final concentrations in the assay were 10 nM c-fms, 1 mM ATP, 5 mM MgCl2, 2% DMSO. Control reactions were ran in each plate: in positive and negative control wells, assay buffer (made 4% in DMSO) was substituted for the compound; in addition, positive control wells received 1.2 μL of 50 mM ethylenediaminetetraaceticacid (EDTA). The plates were incubated at room temperature for 45 min. At the end of the incubation, the reaction was quenched with 1.2 μL of 50 mM EDTA (EDTA was not added to the positive control wells at this point; see above). Following a 5-min incubation, each well received 10 μL of a 1:1:3 mixture of anti-phosphotyrosine antibody, 10×, PTK green tracer, 10× (vortexed), FP dilution buffer, respectively (all from PanVera, cat. # P2837). The plate was covered, incubated for 30 min at room temperature and the fluorescence polarization was read on the Analyst. […]

Macrophage colony-stimulating factor 1 receptor, sequence (P07333 whole entry): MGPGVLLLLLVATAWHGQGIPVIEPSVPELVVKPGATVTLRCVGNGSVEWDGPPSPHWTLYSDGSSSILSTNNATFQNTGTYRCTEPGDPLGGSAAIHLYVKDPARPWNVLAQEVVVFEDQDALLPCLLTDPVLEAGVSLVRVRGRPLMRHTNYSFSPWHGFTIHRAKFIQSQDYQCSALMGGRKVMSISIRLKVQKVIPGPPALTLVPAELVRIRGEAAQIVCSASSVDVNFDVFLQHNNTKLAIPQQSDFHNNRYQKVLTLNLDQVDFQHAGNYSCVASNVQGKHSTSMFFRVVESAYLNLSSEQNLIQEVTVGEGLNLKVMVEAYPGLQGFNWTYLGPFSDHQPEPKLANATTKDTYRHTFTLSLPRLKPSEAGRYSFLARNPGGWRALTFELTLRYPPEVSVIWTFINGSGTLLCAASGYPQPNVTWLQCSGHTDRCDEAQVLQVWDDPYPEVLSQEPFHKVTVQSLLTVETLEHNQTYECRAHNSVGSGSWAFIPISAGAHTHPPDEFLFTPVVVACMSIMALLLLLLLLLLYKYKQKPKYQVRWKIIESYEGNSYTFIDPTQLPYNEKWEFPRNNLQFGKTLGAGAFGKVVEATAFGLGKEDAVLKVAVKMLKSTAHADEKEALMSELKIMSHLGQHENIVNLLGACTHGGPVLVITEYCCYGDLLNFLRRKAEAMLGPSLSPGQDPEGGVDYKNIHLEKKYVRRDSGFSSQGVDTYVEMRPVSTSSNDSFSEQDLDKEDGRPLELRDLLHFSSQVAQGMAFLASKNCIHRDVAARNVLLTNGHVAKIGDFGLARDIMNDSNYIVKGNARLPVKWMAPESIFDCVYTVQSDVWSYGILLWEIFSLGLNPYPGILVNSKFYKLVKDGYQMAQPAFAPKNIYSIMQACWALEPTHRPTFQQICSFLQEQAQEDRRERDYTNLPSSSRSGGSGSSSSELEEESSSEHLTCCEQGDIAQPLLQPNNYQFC

By IC50 is commonly meant the concentration that inhibits the measured activity by half. `CC1(C)CC=C(c2cc([C@]3(O)CC[C@H](N4CCOCC4)CC3)ccc2NC(=O)c2nc(C#N)c[nH]2)CC1` [US9403804, 45] returned an IC50 of 3.4 nM.

On to `CC1(C)CC=C(c2cc([C@]3(O)CC[C@@H](N4CCOCC4)CC3)ccc2NC(=O)c2nc(C#N)c[nH]2)CC1` [US9403804, 44], for which the IC50 is 0.72 nM.

The record behind these values is BindingDB's records for patent US9403804 (Janssen Pharmaceutica, 2016).
